Experiment [1] deals with Cotton plants of the cultivar "Carmen". As to the kind of experiment: Leaf drop effect on cotton plants after spray application (greenhouse). The conditions noted are these: 1 l/ha Actirob B added. It is filed as in vivo. The protocol: (§1) A water application rate of 300 l/ha was initially charged. The components herbicide and adjuvant were then added with stirring at the application rates and in the manner stated in the tables, such that a homogeneous spray liquor was formed. Here, the active ingredients were employed as suspension concentrates (thidiazuron as ®Escalate liquid SC500. Metribuzin as ®Sencor SC 80, thidiazuron+diuron as ®Dropp Ultra SC180) from Bayer CropScience AG. The adjuvant used was ®Actirob B (Novance).
(§2) Cotton seeds of the cultivar “Carmen” were sown at a depth of 1 cm and cultivated in a greenhouse cabin (20000-50000 LUX light: 14 hrs/day; temperature at night: 22° C., during the day: 30° C., rel. atmospheric humidity at night: 65%, during the day 50%) until they had reached the 6-8 leaf stage.
(§3) The plants were treated on a laboratory spray track with spray liquors of thidiazuron and thidiazuron with combination partners. The water application rate for the spray application was 300 l/ha. After the treatment, the plants were returned to the greenhouse cabin.
4 and 8 days after the application, the leaf drop effect was evaluated (leaf drop %): • 0%=no noticeable effect compared to untreated plants; • 100%=all leaves have dropped off.

For experiment [2] the test system is unchanged. As to the kind of experiment: Regrowth of cotton plants, by weighing newly formed leaf material. Type of experiment: in vivo. Particulars: 2 weeks after application, 1 l/ha Actirob B added, repeated twice. As to the method:
as §1, §2, §3
2 weeks after the application, the regrowth of the plants was assessed by weighing the newly formed leaf material. The tabular values express the regrowth as a percentage of the untreated control.

Setting [3] is: Test 1, dose 30 g of a.i./ha, 0%=no effect, 100%=all leaves dropped.

This note sets out measurements from patent US8383550B2, “Defoliant” (Bayer Cropscience AG, priority 2009, dated 2013).

`CSc1nnc(C(C)(C)C)c(=O)n1N` [metribuzin]: the “Leaf drop [%] 4 days after application” value turned out to be 0% in experiment [1] (Test 1, dose 15 g of a.i./ha); 0% in experiment [1] (setting [3]); 0% in experiment [1] (Test 2, dose 15 g of a.i./ha); 0% in experiment [1] (Test 2, dose 30 g of a.i./ha). The “Leaf drop [%] 8 days after application” value in experiment [1] (Test 1, dose 15 g of a.i./ha) is recorded as 0%; in experiment [1] (Test 1, dose 30 g of a.i./ha), 0%; in experiment [1] (Test 2, dose 15 g of a.i./ha) it was 0%; in experiment [1] (Test 2, dose 30 g of a.i./ha) it was 0%. Also, the “Regrowth [%] as a percentage of the untreated control” value in experiment [2] (Table 3, dose 15 g of a.i./ha) was found to be 0%; in experiment [2] (Table 3, dose 30 g of a.i./ha), 0%; in experiment [2] (Table 4, dose 15 g of a.i./ha), 0%; in experiment [2] (Table 4, dose 30 g of a.i./ha), 0%.

Turning to `O=C(Nc1ccccc1)Nc1cnns1` [thidiazuron], in experiment [1] (Test 1, dose 30 g of a.i./ha), the “Leaf drop [%] 8 days after application” value is reported as 63%. Moreover, in experiment [1] (setting [3]), the “Leaf drop [%] 4 days after application” value came to 0%. In experiment [2] (Table 3, dose 30 g of a.i./ha), the “Regrowth [%] as a percentage of the untreated control” value is on record as “+60%”.
